Source: patent US5075337A, “Alpha-deuterated 2-alkylaminoacetamide derivatives having reduced toxicity for treatment of CNS disorders” (G. D. Searle & Co., priority 1989, dated 1991)

Key:
[1] = molecular target: T1, monoamine oxidase enzyme (MAO-B) (Rattus norvegicus, UniProt P19643); experiment: MAO-B enzyme inhibition assay (rat brain mitochondria, preincubation with inhibitor); format: biochemical, rat (Sprague Dawley)
T1 construct: 14C-beta-phenylethylamine substrate
T1 sequence (P19643 1-520): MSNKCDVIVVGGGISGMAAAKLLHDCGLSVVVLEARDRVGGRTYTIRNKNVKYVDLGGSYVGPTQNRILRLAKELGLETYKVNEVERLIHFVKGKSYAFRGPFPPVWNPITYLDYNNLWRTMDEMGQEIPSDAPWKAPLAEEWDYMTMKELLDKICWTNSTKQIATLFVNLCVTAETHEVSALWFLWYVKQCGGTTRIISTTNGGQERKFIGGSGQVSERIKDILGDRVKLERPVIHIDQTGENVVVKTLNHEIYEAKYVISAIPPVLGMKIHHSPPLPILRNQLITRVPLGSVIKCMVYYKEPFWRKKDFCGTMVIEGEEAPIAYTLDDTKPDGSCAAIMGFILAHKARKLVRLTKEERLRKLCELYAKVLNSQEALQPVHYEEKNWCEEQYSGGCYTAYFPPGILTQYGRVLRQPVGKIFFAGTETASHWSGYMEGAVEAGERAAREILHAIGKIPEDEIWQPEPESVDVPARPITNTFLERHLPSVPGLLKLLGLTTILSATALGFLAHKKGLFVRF
Protocol: Rat brain mitochondria were purified by a modification of the method of Dodd (Dodd Sprague Dawley rats of about 200 gr were decapitated and the brain was rapidly removed from the skull. Brains were homogenized with a glass-Teflon homogenizer in ice cold 0.32M sucrose (1/10, w/v). The homogenate was centrifuged at 2,400 g for 10 min at 4° C. The supernatant was centrifuged at 3,000 g for 10 min at 4° C. This last supernatant (8 ml) was poured into at tube containing 4 ml of 1.2M sucrose. The mitochondrial fraction is obtained after a centrifugation at 115,000 g for 30 min at 4° C. The mitochondrial pellet was suspended in 4 ml of 50 mM Na phosphate buffer and stored as aliquots at -30° C. […] Aliquots of the mitochondrial fraction were preincubated with ^2 H-milacemide or milacemide (200 μM in 50 mM Na phosphate buffer pH8) for different time periods, the samples were diluted with the incubation buffer, centrifuged and the pelleis were then used for the MAO assay. The enzymatic assay was performed in Eppendorf micro tubes (1.5 ml). The 100 μl total incubation volume contained 40 μl of 7 mM ^14 C-β-phenylethylamine, 20 μl of 50 mM Na phosphate buffer pH 8 and 40 μl of the pre-incubated mitochondrial fraction (0.2 mg protein/ml). The closed micro tubes were immediately shaken using a vortex and incubated during 4 min at 37° C. The reaclion was stopped by adding 20 μl of 1.5 N Hcl into the tube placed in an ice bath. The deaminated products were extracted with 600 μl of a toluene-ethyl acetate mixture (water saturated) and strongly mixed during 30 sec. The two layers were separated by centrifugation (10.000 g) for 10 min. Then, 400μL of the organic layer were added to 4 ml of lumagel in a scintillation counting vial. Blank values are obtained by incubating the mitochondrial fraction with Hcl 1.5M.

[2] = Comparative pharmacokinetic study, 1:1 mixture of milacemide and ^2 H-milacemide; format: in vivo, cynomolgus monkey (Macaca fascicularis); settings: for ^2 H-milacemide/milacemide ratio, plasma AUC / ^2 H-milacemide/milacemide ratio, urine 24 hours excretion: 1:1 mixture
Protocol: A comparative pharmacokinetic study was conducted in the cynomolgus monkey (Macaca fascicularis) with a 1:1 mixture of milacemide and ^2 H-milacemide administered to 4 males and 4 females used in this study. One animal of each sex received the mixture either by the i.v. route at the dose of 30 mg/kg, or by the intragastric route at the dose of 30 mg/kg or 100 mg/kg, or 300 mg/kg. Plasma samples were drawn from the males and 0-24 hours urine samples were collected by the females. Preliminary determinations of milacemide in the urine samples were made by HPLC. […] The aqueous solution was made alkaline by the addition of 0.3 mL of 0 5M borate buffer at pH 9.3. Derivatization occurs by addition of 0.3 mL of a solution of fluorescamine in acetone (75 g/L), then 10 to 20 pL aliquots were injected on a 5 Bondapak C18 column eluted by a mixture of tetrahydrofuran, water and 0.5M borate buffer (2/6/2) adjusted to pH 8 by the addition of hydrochloric acid. […] Analysis of the ratio of unchanged deutero milacemide versus milacemide, was performed by GC-MS Milacemide and ^2 H-milacemide extracted from plasma aliquots were transformed into their respective N-trifluoroacetylated nitrile by reaction with trifluoroacetic anhydride. After separation from the impurities, on a 3% OV 17 column, the mass spectra were obtained in the chemical ionization mode by ammonia on a Riber 10-10 B mass spectrometer. […] Quantification was performed using selected ion monitoring (SIM) on the base peaks mentioned.

[3] = test system: convulsions induced by bicuculline (BIC); experiment: Prevention of chemically induced convulsions (bicuculline); format: in vivo, mouse (male Swiss albino); settings: 30 mg/kg oral; bicuculline 0.6 mg/kg intravenously; 4 groups of 5 mice
Protocol: (§1) The anticonvulsive effect of a compound of the invention was examined for clonic, tonic convulsions and death induced by different convulsant agents, namely, 3-mercaptopropionic acid (3-MPA 120 mg/kg subcutaneously) and bicuculline (BIC, 0.6 mg/kg intravenously), (W. van Dorsser, D. Barris, A. Cordi and J. Roba; Arch. Int. Pharmacodyn., 266: 239-249 (1983)). The compounds of the invention were administered orally at dosage of either 100 mg/kg (3-MPA) or 30 mg/kg (BIc) in a volume of 10 ml/kg, each to 5 mice, 30 minutes or 2 hours before convulsions were induced. Test mice used were male Swiss albino mice weighing 22-33 g, CDl, charles River, France, housed in group of 10 on a 12 hours light-dark cycle for at least 1 week before use, and fasted overnight. The number of mice protected against tonic convulsions and the number of dead mice were noted. The results are given as a score which represents the total number of mice protected by a dose of 100 mg/kg for two groups of 5 animals (3-MPA) or the percentage of mice protected by a dose of 30 mg/kg in 4 groups of 5 animals (BIC).

[4] = test system: convulsions induced by 3-mercaptopropionic acid (3-MPA); experiment: Prevention of chemically induced convulsions (3-MPA); format: in vivo, mouse (male Swiss albino); settings: 100 mg/kg oral; 3-MPA 120 mg/kg subcutaneously; two groups of 5 mice
Protocol: as §1

[5] = in words; literature; cited from earlier work
[6] = test system: MAO-B enzyme; settings: in words; literature; cited from earlier work
[7] = 200 μM, preincubation, pH 8, rat brain mitochondria, 50% inhibition
[8] = compared with milacemide, in words

Structure (SMILES)	time to reach the same level of inhibition (50%) of MAO-B [1, 7]	fold more time needed to reach the same level (50%) of MAO-B inhibition, ^2 H-milacemide vs milacemide ([1]; ^2 H-milacemide relative to milacemide) [fold]	^2 H-milacemide/milacemide ratio, plasma AUC ([2]; 30 mg/kg i.g.)	^2 H-milacemide/milacemide ratio, urine 24 hours excretion ([2]; 30 mg/kg i.g.)	^2 H-milacemide/milacemide ratio, plasma AUC ([2]; 30 mg/kg i.v.)	^2 H-milacemide/milacemide ratio, urine 24 hours excretion ([2]; 30 mg/kg i.v.)	^2 H-milacemide/milacemide ratio, plasma AUC ([2]; 100 mg/kg i.g.)	^2 H-milacemide/milacemide ratio, urine 24 hours excretion ([2]; 100 mg/kg i.g.)	^2 H-milacemide/milacemide ratio, plasma AUC ([2]; 300 mg/kg i.g.)	^2 H-milacemide/milacemide ratio, urine 24 hours excretion ([2]; 300 mg/kg i.g.)	first pass effect [2, 8]	half-life [2, 8]	metabolic clearance [2, 8]	BIC (% Protected) [3] [%]	3-MPA (% Protected) [4] [%]	time to inhibit MAO-B activity by 50% [1, 7] [min]	brain bioavailability [5]	metabolism in the peripheral system by the MAO-B enzyme [6]
[2H]C([2H])(CCCC)NCC(N)=O [^2 H-milacemide, 2-(1,1-dideuteropentylamino)acetamide]	at least 3 hours	6	14.6	7.4	2.6	3.1	9.2	5.2	7.1	3.7	reduced first pass effect	prolonged	decreased metabolic clearance	45	10			
CCCCCNCC(N)=O [milacemide, 2-n-pentylaminoacetamide, reference compound]														65	20	30	limited brain bioavailability	metabolized in the peripheral system by the MAO-B enzyme
NNCCc1ccccc1 [phenelzine]																	limiting its brain bioavailability	metabolized in the peripheral system by the MAO-B enzyme
